From ChEMBL document CHEMBL4184181, “Evaluation of alkylating pyrrole-imidazole polyamide conjugates by a novel method for high-throughput sequencer” (Bioorg Med Chem, 2018)
Active and inactive are the calls of the source. No cut-off for these calls is given here.

What was measured:
[1] = tested on: A549; test: Cytotoxicity against human A549 cells after 48 hrs by WST8 assay; assay type: functional, cell-based; conditions: A549, 48 h
[2] = species: Bos taurus; test: Alkylating activity at ACCTCAA sequence of calf thymus DNA assessed as enrichment ratio by measuring ratio of sample to input control after 1 hr by MERMADE method; assay type: functional
[3] = species: Bos taurus; test: Alkylating activity at ACCTCTA sequence of calf thymus DNA assessed as enrichment ratio by measuring ratio of sample to input control after 1 hr by MERMADE method; assay type: functional
[4] = species: Bos taurus; test: Alkylating activity at ACCACTA sequence of calf thymus DNA assessed as enrichment ratio by measuring ratio of sample to input control after 1 hr by MERMADE method; assay type: functional
[5] = species: Bos taurus; test: Alkylating activity at ATCACTA sequence of calf thymus DNA assessed as enrichment ratio by measuring ratio of sample to input control after 1 hr by MERMADE method; assay type: functional
[6] = species: Bos taurus; test: Alkylating activity at CCTCTAG sequence of calf thymus DNA assessed as enrichment ratio by measuring ratio of sample to input control after 1 hr by MERMADE method; assay type: functional
[7] = species: Bos taurus; test: Alkylating activity at TAGTGAA sequence of calf thymus DNA assessed as enrichment ratio by measuring ratio of sample to input control after 1 hr by MERMADE method; assay type: functional
[8] = species: Bos taurus; test: Alkylating activity at CCACTAG sequence of calf thymus DNA assessed as enrichment ratio by measuring ratio of sample to input control after 1 hr by MERMADE method; assay type: functional
[9] = species: Bos taurus; test: Alkylating activity at ACTAGTG sequence of calf thymus DNA assessed as enrichment ratio by measuring ratio of sample to input control after 1 hr by MERMADE method; assay type: functional
[10] = species: Bos taurus; test: Alkylating activity at CTAGTGA sequence of calf thymus DNA assessed as enrichment ratio by measuring ratio of sample to input control after 1 hr by MERMADE method; assay type: functional
[11] = species: Bos taurus; test: Alkylating activity at CCTCTAA sequence of calf thymus DNA assessed as enrichment ratio by measuring ratio of sample to input control after 1 hr by MERMADE method; assay type: functional
[12] = species: Bos taurus; test: Alkylating activity at CTCTAGA sequence of calf thymus DNA assessed as enrichment ratio by measuring ratio of sample to input control after 1 hr by MERMADE method; assay type: functional
[13] = species: Bos taurus; test: Alkylating activity at CACTAGA sequence of calf thymus DNA assessed as enrichment ratio by measuring ratio of sample to input control after 1 hr by MERMADE method; assay type: functional
[14] = species: Bos taurus; test: Alkylating activity at TACACTA sequence of calf thymus DNA assessed as enrichment ratio by measuring ratio of sample to input control after 1 hr by MERMADE method; assay type: functional
[15] = species: Bos taurus; test: Alkylating activity at TCACTAA sequence of calf thymus DNA assessed as enrichment ratio by measuring ratio of sample to input control after 1 hr by MERMADE method; assay type: functional
[16] = species: Bos taurus; test: Alkylating activity at ATCTCTA sequence of calf thymus DNA assessed as enrichment ratio by measuring ratio of sample to input control after 1 hr by MERMADE method; assay type: functional
[17] = species: Bos taurus; test: Alkylating activity at AGTGGTA sequence of calf thymus DNA assessed as enrichment ratio by measuring ratio of sample to input control after 1 hr by MERMADE method; assay type: functional
[18] = species: Bos taurus; test: Alkylating activity at CCTCTAC sequence of calf thymus DNA assessed as enrichment ratio by measuring ratio of sample to input control after 1 hr by MERMADE method; assay type: functional
[19] = species: Bos taurus; test: Alkylating activity at ACCATTA sequence of calf thymus DNA assessed as enrichment ratio by measuring ratio of sample to input control after 1 hr by MERMADE method; assay type: functional
[20] = species: Bos taurus; test: Alkylating activity at CCTCAAG sequence of calf thymus DNA assessed as enrichment ratio by measuring ratio of sample to input control after 1 hr by MERMADE method; assay type: functional
[21] = species: Bos taurus; test: Alkylating activity at CCACTAA sequence of calf thymus DNA assessed as enrichment ratio by measuring ratio of sample to input control after 1 hr by MERMADE method; assay type: functional
[22] = species: Bos taurus; test: Alkylating activity at calf thymus DNA containing adenine at seventh position of motif by MR method; assay type: functional
[23] = species: Bos taurus; test: Alkylating activity at ACCTCAC sequence of calf thymus DNA assessed as enrichment ratio by measuring ratio of sample to input control after 1 hr by MERMADE method; assay type: functional
[24] = species: Bos taurus; test: Alkylating activity at CCTCACC sequence of calf thymus DNA assessed as enrichment ratio by measuring ratio of sample to input control after 1 hr by MERMADE method; assay type: functional
[25] = species: Bos taurus; test: Alkylating activity at TACCTCA sequence of calf thymus DNA assessed as enrichment ratio by measuring ratio of sample to input control after 1 hr by MERMADE method; assay type: functional
[26] = species: Bos taurus; test: Alkylating activity at CACCTCA sequence of calf thymus DNA assessed as enrichment ratio by measuring ratio of sample to input control after 1 hr by MERMADE method; assay type: functional
[27] = species: Bos taurus; test: Alkylating activity at CCACCTC sequence of calf thymus DNA assessed as enrichment ratio by measuring ratio of sample to input control after 1 hr by MERMADE method; assay type: functional
[28] = species: Bos taurus; test: Alkylating activity at AGGTGAG sequence of calf thymus DNA assessed as enrichment ratio by measuring ratio of sample to input control after 1 hr by MERMADE method; assay type: functional
[29] = species: Bos taurus; test: Alkylating activity at GAGGTTA sequence of calf thymus DNA assessed as enrichment ratio by measuring ratio of sample to input control after 1 hr by MERMADE method; assay type: functional
[30] = species: Bos taurus; test: Alkylating activity at ACCTCAT sequence of calf thymus DNA assessed as enrichment ratio by measuring ratio of sample to input control after 1 hr by MERMADE method; assay type: functional
[31] = species: Bos taurus; test: Alkylating activity at CTACCTC sequence of calf thymus DNA assessed as enrichment ratio by measuring ratio of sample to input control after 1 hr by MERMADE method; assay type: functional
[32] = species: Bos taurus; test: Alkylating activity at GAGGTGA sequence of calf thymus DNA assessed as enrichment ratio by measuring ratio of sample to input control after 1 hr by MERMADE method; assay type: functional
[33] = species: Bos taurus; test: Alkylating activity at GGTGAGA sequence of calf thymus DNA assessed as enrichment ratio by measuring ratio of sample to input control after 1 hr by MERMADE method; assay type: functional
[34] = species: Bos taurus; test: Alkylating activity at CTCCACC sequence of calf thymus DNA assessed as enrichment ratio by measuring ratio of sample to input control after 1 hr by MERMADE method; assay type: functional
[35] = species: Bos taurus; test: Alkylating activity at ACCTCAG sequence of calf thymus DNA assessed as enrichment ratio by measuring ratio of sample to input control after 1 hr by MERMADE method; assay type: functional
[36] = species: Bos taurus; test: Alkylating activity at CCACTCC sequence of calf thymus DNA assessed as enrichment ratio by measuring ratio of sample to input control after 1 hr by MERMADE method; assay type: functional
[37] = species: Bos taurus; test: Alkylating activity at ATACCTC sequence of calf thymus DNA assessed as enrichment ratio by measuring ratio of sample to input control after 1 hr by MERMADE method; assay type: functional
[38] = species: Bos taurus; test: Alkylating activity at GTGAGGA sequence of calf thymus DNA assessed as enrichment ratio by measuring ratio of sample to input control after 1 hr by MERMADE method; assay type: functional
[39] = species: Bos taurus; test: Alkylating activity at CGACCTC sequence of calf thymus DNA assessed as enrichment ratio by measuring ratio of sample to input control after 1 hr by MERMADE method; assay type: functional
[40] = species: Bos taurus; test: Alkylating activity at ACTCCTC sequence of calf thymus DNA assessed as enrichment ratio by measuring ratio of sample to input control after 1 hr by MERMADE method; assay type: functional

CC(=O)Nc1cn(C)c(C(=O)Nc2cn(C)c(C(=O)Nc3cn(C)c(C(=O)Nc4cn(C)c(C(=O)NCC[C@@H](NC(=O)OC(C)(C)C)C(=O)Nc5ccc(C(=O)Nc6cn(C)cc6C(=O)Nc6ccc7[nH]c(C(=O)N8CC(CCl)c9c8cc(O)c8ccccc98)cc7c6)n5C)n4)n3)n2)n1 (stereo partly drawn)
IC50 [1]: 120 nM

CC(=O)Nc1cn(C)c(C(=O)Nc2cn(C)c(C(=O)Nc3cn(C)c(C(=O)Nc4cn(C)c(C(=O)NCC[C@@H](NC(=O)OC(C)(C)C)C(=O)Nc5ccc(C(=O)Nc6cn(C)cc6C(=O)Nc6cn(C)cc6C(=O)Nc6ccc7[nH]c(C(=O)N8CC(CCl)c9c8cc(O)c8ccccc98)cc7c6)n5C)n4)n3)n2)n1 (stereo partly drawn)
IC50 [1]: 63 nM

CC(=O)Nc1cn(C)c(C(=O)Nc2cn(C)c(C(=O)Nc3cn(C)c(C(=O)Nc4cn(C)c(C(=O)NCC[C@@H](NC(=O)CCOCCOCCOCCOCCOCCOCCOCCOCCOCCOCCOCCOCCNC(=O)CCCC[C@@H]5SC[C@@H]6NC(=O)N[C@@H]65)C(=O)Nc5ccc(C(=O)Nc6cn(C)cc6C(=O)Nc6cn(C)cc6C(=O)Nc6ccc7[nH]c(C(=O)N8CC(CCl)c9c8cc(O)c8ccccc98)cc7c6)n5C)n4)n3)n2)n1 (stereo partly drawn)
Ratio [2]: 4.19
Ratio [3]: 6.96
Ratio [4]: 5.11
Ratio [5]: 4.94
Ratio [6]: 4.45
Ratio [7]: 4.34
Ratio [8]: 4.13
Ratio [9]: 3.82
Ratio [10]: 3.82
Ratio [11]: 3.79
Ratio [12]: 3.68
Ratio [13]: 3.64
Ratio [14]: 3.63
Ratio [15]: 3.61
Ratio [16]: 3.46
Ratio [17]: 3.37
Ratio [18]: 3.33
Ratio [19]: 3.28
Ratio [20]: 3.19
Ratio [21]: 3.16
Activity [22]: Active

CC(=O)Nc1cn(C)c(C(=O)Nc2cn(C)c(C(=O)Nc3cn(C)c(C(=O)Nc4cn(C)c(C(=O)NCC[C@@H](NC(=O)CCOCCOCCOCCOCCOCCOCCOCCOCCOCCOCCOCCOCCNC(=O)CCCC[C@@H]5SC[C@@H]6NC(=O)N[C@@H]65)C(=O)Nc5ccc(C(=O)Nc6cn(C)cc6C(=O)Nc6ccc7[nH]c(C(=O)N8CC(CCl)c9c8cc(O)c8ccccc98)cc7c6)n5C)n4)n3)n2)n1 (stereo partly drawn)
Ratio [23]: 2.69
Ratio [24]: 2.65
Ratio [25]: 2.48
Ratio [26]: 2.44
Ratio [27]: 2.4
Ratio [28]: 2.24
Ratio [29]: 2.21
Ratio [30]: 2.17
Ratio [31]: 2.12
Ratio [2]: 2.07
Ratio [32]: 2.06
Ratio [33]: 2.06
Ratio [34]: 2.06
Ratio [35]: 2.05
Ratio [36]: 2.04
Ratio [37]: 2.02
Ratio [38]: 2.02
Ratio [3]: 2.01
Ratio [39]: 2
Ratio [40]: 2
